Test results: PMC7072103, “Simultaneous Determination of 13 Constituents of Radix Polygoni Multiflori in Rat Plasma and Its Application in a Pharmacokinetic Study” (International Journal of Analytical Chemistry, 2020)

What was measured:
[1] = Pharmacokinetic study in rats after oral administration of RPM extract (UPLC-MS/MS of plasma); format: in vivo, Sprague-Dawley rats; conditions: rat plasma, single oral dose of RPM extract 36 g/kg, n = 6, mean ± SD
Experimental: The analysis was performed on an AB Sciex API 5500 Q Trap mass spectrometer (Toronto, Canada), interfaced with a Waters Acquity UPLC separation module. Empower 3.0 and Analyst 1.62 software were used to control UPLC and mass spectrometer, respectively.
Chromatographic separation was achieved on a waters HSS C18 column (100 × 2.1 mm, 1.8 μm, kept at 40°C) using a mobile phase containing 0.025% formic acid that consisted of solvent A (water) and solvent B (acetonitrile). The mobile phase was delivered at 0.3 mL/min, and a gradient program was used as follows: 0-1 min, held 5% to 25% solvent B; 1–3.5 min, linear gradient from 25% to 35% solvent B; 3.5–5 min, linear gradient from 35% to 40% solvent B; 5-6 min, linear gradient from 40% to 60% solvent B; 6-6.1 min, linear gradient from 60% to 95% solvent B; 6.1–8 min, linear gradient from 95% to 100% solvent B; and 8-9 min, held 5% solvent B.
The MS detection was set in positive multiple reaction monitoring (MRM) mode for the analytes and IS. The turbo spray temperature was maintained at 500°C. The nebulizer gas (gas 1), heater gas (gas 2), and curtain gas was set at 45, 50, and 45 psi, respectively. The interface heater was on. The precursor ion, corresponding product ion and dwell time along with declustering potential (DP), entrance potential (EP), collision energy (CE), and collision exit potential (CXP) for each compound were optimized with standard substance. The dwell time was 50 ms for all analytes. The EP and CXP were set at –10 V and −16 V, respectively.
Sample preparations were made using the protein precipitation process. 50 μL thawed plasma, 10 μL IS working solution (puerarin 10 μg/mL), and 150 μL acetonitrile were added to a 1.5 mL tube in that order. After vortexed for 5 min and centrifuged at 12,000 g for 5 min at 4°C, 150 μL of the supernatant was transferred and a 5 μL was injected into the UPLC-MS/MS instrument for analysis.
Male Sprague-Dawley rats (200–240 g) were obtained from Beijing Vital River Laboratory Animal Technology Co., Ltd. (Beijing, China) (SCXK 2016(jing)-0006). The animals were maintained in SPF animal room at temperature 22 ± 2°C, 60 ± 5% humidity, and 12/12 h day/night cycle. All procedures were approved by the Institutional Animal Ethics Committee and performed in accordance with the Regulations of Experiment Animal Administration issued by the State Committee of Science and Technology of China. RPM extract suspended in an equal volume of 5% CMC-Na solution and orally administered to the six rats at a single dose of 36 g/kg (dose calculated as grams of crude materials used to create the extract per kilogram of rat body weight). The dose was set at a subtoxic level to investigate the pharmacokinetic profiles of the constituents of RPM and were approximately 72 times the upper dose (6 g/day) of human recommended by the 2015 edition of Chinese Pharmacopoeia (converted to rat dose based on body surface area conversion). The calculated doses of compounds based on the contents in the extract were 7.38, 14.8, 13.7, 8.82, 15.5, 11.2, 55.8, 1.08, 1170, 11.3, 25.7, 131.4, and 13.0 mg/kg for chrysophanol, emodin, aloe-emodin, rhein, physcion, questin, citreorosein, questinol, TSG, TG, CG, EG, and PG, respectively. Rats were fasted for at least 12 h before the experiments and had free access to water. Blood samples (∼0.25 mL) were collected from the retinal venous plexus into heparinized 1.5 mL polythene tubes before administration and 5, 15, and 30 min and 1, 2, 4, 6, 8, 12, and 24 h after dosing RPM extract at dose of 36 g/kg. The plasma was immediately separated from blood samples and stored frozen at −70°C until analysis.
The pharmacokinetic parameters were calculated using the pharmacokinetic software Phoenix® WinNonlin®, version 7.0 (Scientific Consulting Inc., Apex, NC, USA). The peak plasma concentration (Cmax) and time to reach Cmax (Tmax) were read directly from the experimental data. […]

[2] = Stability of the analytes in rat plasma and processed plasma samples; format: in vitro ADME; conditions: for Stability, post-preparative: acetonitrile-precipitated plasma supernatant, 24 h at 6°C in autosampler; for Stability, long-term (–70 °C) / Stability, short-term / Stability, freeze–thaw (three cycles): rat plasma; for Stability, long-term (–70 °C): 3 months at −70°C; for Stability, short-term: 4 h at room temperature; for Stability, freeze–thaw (three cycles): −70°C to room temperature
Experimental: The stability of the 13 analytes in rat plasma were assessed by analyzing samples spiked 0.2, 2.7, and 58.3 ng/mL for emodin, aloe-emodin, questin, citreorosein, questinol, TG, CG, EG, PG; 0.6, 8.1, and 175 ng/mL for TSG; 1, 13.5, and 291.6 ng/mL for rhein, physcion; and 2, 27, and 583.2 ng/mL for chrysophanol, respectively, under four conditions: (1) short-term storage for 4 h at room temperature; (2) long-term storage for (3 months at −70°C; (3) three freeze-thaw cycles; and (4) posttreatment storage for 24 h at 6°C setting in UPLC autosampler. The concentrations obtained were compared with the nominal values of the spiked samples. The stability was calculated as the percent of the measured concentration to the initial concentration at time zero. The analytes were considered stable if the assay values were within the acceptable limit of accuracy (85.0∼115%).

[3] = high QC (58.3 ng/mL; TSG 175; rhein, physcion 292; chrysophanol 583)
[4] = low QC (0.2 ng/mL; TSG 0.6; rhein, physcion 1; chrysophanol 2)
[5] = middle QC (2.7 ng/mL; TSG 8.1; rhein, physcion 13.5; chrysophanol 27)

## Cc1cc(O)c2c(c1)C(=O)c1cc(O)cc(O)c1C2=O [Emodin, 1,3,8-trihydroxy-6-methylanthracene-9,10-dione]
[1]; male, Sprague-Dawley, in vivo, read-out: AUC0–∞
  AUC(0-inf): 801 ± 233 ng·h/mL
[1]; male, Sprague-Dawley, in vivo, read-out: Cmax
  Cmax: 175 ± 33.8 ng/mL
[1]; male, Sprague-Dawley, in vivo, read-out: MRT0–∞
  MRT inf: 11.8 ± 5.27 h
[1]; male, Sprague-Dawley, in vivo, read-out: Tmax
  Tmax: 0.19 ± 0.09 h
[1]; male, Sprague-Dawley, in vivo, read-out: t1/2 (converted)
  half-life: 8.37 ± 4.17 h
[1]; male, Sprague-Dawley, rat, in vivo, po, 36 g/kg, read-out: AUC0–t
  AUC(0-t): 801 ± 187 ng·h/mL
[1]
  AUC0–t: 686 ± 187 ng·h/mL
[2]; [3]
  Stability, post-preparative: 98.1%
  Stability, long-term (–70 °C): 101%
  Stability, short-term: 106%
  Stability, freeze–thaw (three cycles): 104%
[2]; [4]
  Stability, post-preparative: 101%
  Stability, long-term (–70 °C): 100%
  Stability, short-term: 93.6%
  Stability, freeze–thaw (three cycles): 102%
[2]; [5]
  Stability, post-preparative: 103%
  Stability, long-term (–70 °C): 102%
  Stability, short-term: 105%
  Stability, freeze–thaw (three cycles): 104%
